This assay deals with LNCaP. Put plainly: Antiproliferative activity against human LNCaP cell line. It is filed as functional, cell-based. As to conditions: for pIC50: Homo sapiens, LNCaP, read-out: IC50; call rule not given here.

The source of these data is ChEMBL document CHEMBL1138074, “SAR studies of 2-methoxyestradiol and development of its analogs as probes of anti-tumor mechanisms” (Bioorg Med Chem Lett, 2006).

pIC50: −log10 of the molar value.

Consider `COc1cc2c(cc1O)CC[C@@H]1[C@@H]2CC[C@]2(C)[C@@H](OC(=O)CNC(=O)CCCCCN)CC[C@@H]12`, for which the pIC50 (usually the negative decadic logarithm of the IC50, by convention in mol/L) is 6.22.
Still for that read-out and setting: the value for `COc1cc2c(cc1O)CC[C@@H]1[C@@H]2CC[C@]2(C)[C@@H](OC(=O)CN)CC[C@@H]12` was 6.05; that for `COc1cc2c(cc1O)CC[C@@H]1[C@@H]2CC[C@]2(C)[C@@H](OC(=O)CNC(=O)CCCCCNC(=O)CCCC[C@@H]3SC[C@@H]4NC(=O)N[C@@H]43)CC[C@@H]12` was 6.22.
For `COc1cc2c(cc1O)CC[C@@H]1[C@@H]2CC[C@]2(C)[C@@H](OC(=O)CNC(=O)CCCCCNC(=O)OC(C)(C)C)CC[C@@H]12`, the pIC50 was 6.22.
Turning to `COc1cc2c(cc1O)CC[C@@H]1[C@@H]2CC[C@]2(C)[C@@H](OC(=O)CNC(=O)OCC3c4ccccc4-c4ccccc43)CC[C@@H]12`, the IC50 entry (lncap) is recorded as “Not Active”.
Turning to `COc1cc2c(cc1O)CC[C@@H]1[C@@H]2CC[C@]2(C)[C@@H](O)CC[C@@H]12` [2-METHOXYESTRADIOL], the pIC50 was 6.30.
